Measurements as given in patent US12552800B2, “Compounds for diagnosis” (AC IMMUNE SA, priority 2020, dated 2026).

Experiments:
[1] = biological target: T1, PD brain-derived a-syn aggregates (Homo sapiens, UniProt P37840); experiment: Micro-radiobinding competition assay against Example-1 [^3H-1] (Table 8); assay type: binding; details: competition over Example-1 [^3H-1]
T1 construct: from tissue; host or cells: human PD donor brain, sarkosyl-insoluble 100,000 x g pellet

[2] = biological target: T1, PD brain-derived a-syn aggregates; experiment: as above; assay type: binding; details: human PD brain-derived a-syn aggregates; for Competition at 100 nM (%): 100 nM non-radiolabelled example compound vs Example-1 [^3H-1] ligand; for Competition at 1 μM (%): 1 μM non-radiolabelled example compound vs Example-1 [^3H-1] ligand
Summary of the method: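 Human PD brain-derived α-syn aggregates on microarray slides were co-incubated with 6 nM or 20 nM tritiated radioligand and unlabelled compound at 1 μM and 100 nM, some over 0.05 nM–2 μM. Bound signal read by real-time autoradiography; values are % competition, at least two technical replicates, mean of independent experiments.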

`O=C1c2cn(-c3ccc(N4CC[C@H](F)C4)nc3)nc2CN1c1cccnn1` [Example 151] was tested, and the Ki [1] was 226 nM, the “Competition at 100 nM (%)” value [2] was 51% and the “Competition at 1 μM (%)” value [2] was 81%.

For `O=C1c2cn(-c3ccc(N4CC[C@@H](F)C4)nc3)nc2CN1c1cc(O)ccn1` [Example 166], the Ki [1] was 55 nM, the “Competition at 100 nM (%)” value [2] was 72% and the “Competition at 1 μM (%)” value [2] was 96%.

In the case of `O=C1c2cn(-c3ccc(N4CCCC4)nc3)nc2CN1c1cncc(F)c1` [Example 99], the Ki [1] is reported as 82 nM, the “Competition at 100 nM (%)” value [2] is reported as 56% and the “Competition at 1 μM (%)” value [2] is reported as 92%.

In the case of `O=C1c2cn(-c3ccc(N4CC[C@H](F)C4)nc3)nc2CN1c1ccc(O)nc1` [Example 101], the Ki [1] is reported as 311 nM and the “Competition at 1 μM (%)” value [2] is reported as 75%.

In the case of `O=C1c2cn(-c3ccc(N4CC[C@H](F)C4)nc3)nc2CN1c1ccccn1` [Example 6], the Ki [1] is reported as 19 nM, the “Competition at 100 nM (%)” value [2] is reported as 87% and the “Competition at 1 μM (%)” value [2] is reported as 98%.

For `O=C1c2cn(-c3ccc(N4CC[C@H](F)C4)nc3)nc2CN1c1cccnc1` [Example 3], the Ki [1] was 57 nM, the “Competition at 100 nM (%)” value [2] was 45% and the “Competition at 1 μM (%)” value [2] was 89%.

In the case of `Cc1cncc(N2Cc3nn(-c4ccc(N5CC[C@H](F)C5)nc4)cc3C2=O)c1` [Example 108], the Ki [1] is reported as 182 nM, the “Competition at 100 nM (%)” value [2] is reported as 54% and the “Competition at 1 μM (%)” value [2] is reported as 81%.

For `O=C1c2cn(-c3ccc(N4CCCC4)nc3)nc2CN1c1cncc(F)n1` [Example 139], the Ki [1] was 7 nM, the “Competition at 100 nM (%)” value [2] was 58% and the “Competition at 1 μM (%)” value [2] was 77%.

For `Cc1c2c(nn1-c1ccc(N3CC[C@@H](F)C3)nc1)CN(c1ccccn1)C2=O` [Example 95], the Ki [1] was 54 nM, the “Competition at 100 nM (%)” value [2] was 34% and the “Competition at 1 μM (%)” value [2] was 68%.

In the case of `O=C1c2cn(-c3ccc(N4CCC[C@@H](F)C4)nc3)nc2CN1c1cccnc1` [Example 40], the Ki [1] is reported as 49 nM, the “Competition at 100 nM (%)” value [2] is reported as 50% and the “Competition at 1 μM (%)” value [2] is reported as 77%.

For `O=C1c2cn(-c3ccc(N4CC(F)C4)nc3)nc2CN1c1cccnc1` [Example 48], the Ki [1] was 132 nM, the “Competition at 100 nM (%)” value [2] was 42% and the “Competition at 1 μM (%)” value [2] was 77%.

With `O=C1c2cn(-c3ccc(N4CC[C@@H](F)C4)nc3)nc2CN1c1ncccc1O` [Example 167] the Ki [1] was 56 nM, the “Competition at 100 nM (%)” value [2] was 68% and the “Competition at 1 μM (%)” value [2] was 93%.

With `O=C1c2cn(-c3ccc(N4CC[C@@H](F)C4)nc3)nc2CN1c1cnccn1` [Example 7] the Ki [1] was 5 nM, the “Competition at 100 nM (%)” value [2] was 87% and the “Competition at 1 μM (%)” value [2] was 101%.

`O=C1c2cn(-c3ccc(N4CC[C@H](F)C4)nc3)nc2CN1c1cn[nH]c1` [Example 181] was tested, and the Ki [1] was 136 nM, the “Competition at 100 nM (%)” value [2] was 67% and the “Competition at 1 μM (%)” value [2] was 75%.

`Cl.O=C1c2cn(-c3ccc(N4CC[C@H](F)C4)nc3)nc2CN1c1cnccn1` [Example 17] was tested, and the Ki [1] was 21 nM, the “Competition at 100 nM (%)” value [2] was 68% and the “Competition at 1 μM (%)” value [2] was 100%.

`O=C1c2cn(-c3ccc(N4CC[C@@H](F)C4)nc3)nc2CN1c1ccnnc1` [Example 25] was tested, and the Ki [1] was 68 nM, the “Competition at 100 nM (%)” value [2] was 64% and the “Competition at 1 μM (%)” value [2] was 94%.

`O=C1c2cn(-c3ccc(N4CC[C@H](F)C4)nc3)nc2CN1c1ccncc1` [Example 54] was tested, and the Ki [1] was 19 nM, the “Competition at 100 nM (%)” value [2] was 71% and the “Competition at 1 μM (%)” value [2] was 88%.

For `O=C1c2cn(-c3ccc(N4CC[C@H](F)C4)nc3)nc2CN1c1ncccc1O` [Example 169], the Ki [1] was 45 nM, the “Competition at 100 nM (%)” value [2] was 73% and the “Competition at 1 μM (%)” value [2] was 96%.

For `O=C1c2cn(-c3ccc(N4CC[C@@H](F)C4)nc3)nc2CN1c1ccc(O)nc1` [Example 81], the Ki [1] was 118 nM, the “Competition at 100 nM (%)” value [2] was 56% and the “Competition at 1 μM (%)” value [2] was 90%.

In the case of `O=C1c2cn(-c3ccc(N4CC[C@H](F)C4)nc3)nc2CN1c1ccnnc1` [Example 19], the Ki [1] is reported as 74 nM, the “Competition at 100 nM (%)” value [2] is reported as 23% and the “Competition at 1 μM (%)” value [2] is reported as 83%.

For `O=C1c2cn(-c3ccc(N4CC[C@H](F)C4)nc3)nc2CN1c1ccc(F)cc1` [Example 64], the Ki [1] was 2 nM, the “Competition at 100 nM (%)” value [2] was 54% and the “Competition at 1 μM (%)” value [2] was 95%.

In the case of `O=C1c2cn(-c3ccc(N4CC[C@H](F)C4)nc3)nc2CN1c1ncccn1` [Example 18], the Ki [1] is reported as 111 nM, the “Competition at 100 nM (%)” value [2] is reported as 23% and the “Competition at 1 μM (%)” value [2] is reported as 86%.

For `Cn1ccc(-n2cc3c(n2)CN(c2cncc(F)n2)C3=O)n1` [Example 148], the Ki [1] was 40 nM, the “Competition at 100 nM (%)” value [2] was 77% and the “Competition at 1 μM (%)” value [2] was 91%.

`O=C1c2cn(-c3ccc(N4CC[C@@H](F)C4)nc3)nc2CN1c1cncc(F)c1` [Example 91] was tested, and the Ki [1] was 42 nM, the “Competition at 100 nM (%)” value [2] was 44% and the “Competition at 1 μM (%)” value [2] was 84%.

In the case of `COc1cncc(N2Cc3nn(-c4ccc(N5CC[C@H](F)C5)nc4)cc3C2=O)c1` [Example 98], the Ki [1] is reported as 89 nM, the “Competition at 100 nM (%)” value [2] is reported as 38% and the “Competition at 1 μM (%)” value [2] is reported as 76%.

In the case of `Cc1cncc(N2Cc3nn(-c4ccc(N5CC[C@@H](F)C5)nc4)cc3C2=O)c1` [Example 105], the Ki [1] is reported as 149 nM, the “Competition at 100 nM (%)” value [2] is reported as 57% and the “Competition at 1 μM (%)” value [2] is reported as 83%.

With `Nc1ccc(N2Cc3nn(-c4ccc(N5CCCC5)nc4)cc3C2=O)cc1F` [Example 50] the Ki [1] was 8 nM, the “Competition at 100 nM (%)” value [2] was 94% and the “Competition at 1 μM (%)” value [2] was 103%.

For `O=C1c2cn(-c3ccc(N4CCOCC4)nc3)nc2CN1c1cnc(F)cn1` [Example 142], the Ki [1] was 6 nM, the “Competition at 100 nM (%)” value [2] was 92% and the “Competition at 1 μM (%)” value [2] was 99%.

With `Cl.O=C1c2cn(-c3ccc(N4CCCC4)nc3)nc2CN1c1cnc(F)cn1` [Example 143] the Ki [1] was 8 nM, the “Competition at 100 nM (%)” value [2] was 80% and the “Competition at 1 μM (%)” value [2] was 91%.

In the case of `COc1ccc(N2Cc3nn(-c4ccc(N5CC[C@@H](F)C5)nc4)cc3C2=O)cc1` [Example 27], the Ki [1] is reported as 13 nM, the “Competition at 100 nM (%)” value [2] is reported as 87% and the “Competition at 1 μM (%)” value [2] is reported as 99%.

For `O=C1c2cn(-c3ccc(N4CCCC4)nc3)nc2CN1c1ccncc1F` [Example 113], the Ki [1] was 40 nM, the “Competition at 100 nM (%)” value [2] was 75% and the “Competition at 1 μM (%)” value [2] was 91%.

`Cn1cc(N2Cc3nn(-c4ccc(N5CC[C@@H](F)C5)nc4)cc3C2=O)cn1` [Example 26] was tested, and the Ki [1] was 20 nM, the “Competition at 100 nM (%)” value [2] was 87% and the “Competition at 1 μM (%)” value [2] was 108%.

In the case of `O=C1c2cn(-c3ccc(N4CC[C@@H](F)C4)cn3)nc2CN1c1cccnc1` [Example 66], the “Competition at 100 nM (%)” value [2] is reported as 72% and the “Competition at 1 μM (%)” value [2] is reported as 92%.

For `COc1ccc(-n2cc3c(n2)CN(c2cccnc2)C3=O)cn1` [Example 130], the “Competition at 100 nM (%)” value [2] was 74% and the “Competition at 1 μM (%)” value [2] was 85%.

In the case of `O=C1c2cn(-c3ccc(N4CCCC4)nc3)nc2CN1c1nccnc1F` [Example 42], the “Competition at 100 nM (%)” value [2] is reported as 57% and the “Competition at 1 μM (%)” value [2] is reported as 89%.

In the case of `Cc1c2c(nn1-c1ccc(N3CC[C@@H](F)C3)nc1)CN(c1cccnc1)C2=O` [Example 52], the “Competition at 100 nM (%)” value [2] is reported as 26% and the “Competition at 1 μM (%)” value [2] is reported as 29%.

`O=C1c2cn(-c3ccc(N4CC[C@@H](F)C4)nc3)nc2CN1c1cccc(O)n1` [Example 164] was tested, and the “Competition at 100 nM (%)” value [2] was 44% and the “Competition at 1 μM (%)” value [2] was 87%.

In the case of `COc1cncc(N2Cc3nn(-c4ccc(N5CC[C@@H](F)C5)nc4)cc3C2=O)c1` [Example 97], the Ki [1] is reported as 84 nM, the “Competition at 100 nM (%)” value [2] is reported as 33% and the “Competition at 1 μM (%)” value [2] is reported as 84%.

With `CC(C)c1ccc(-n2cc3c(n2)CN(c2cccc(F)n2)C3=O)cn1` [Example 157] the “Competition at 100 nM (%)” value [2] was 21% and the “Competition at 1 μM (%)” value [2] was 43%.

With `O=C1c2cn(-c3ccc(C4CCCC4)nc3)nc2CN1c1cccc(F)n1` [Example 154] the “Competition at 100 nM (%)” value [2] was 81% and the “Competition at 1 μM (%)” value [2] was 99%.

`Cc1ccnc(N2Cc3nn(-c4ccc(N5CC[C@@H](F)C5)nc4)cc3C2=O)c1` [Example 80] was tested, and the Ki [1] was 56 nM, the “Competition at 100 nM (%)” value [2] was 51% and the “Competition at 1 μM (%)” value [2] was 83%.

`Cc1c2c(nn1-c1ccc(N3CC[C@H](F)C3)nc1)CN(c1ccncc1)C2=O` [Example 93] was tested, and the “Competition at 100 nM (%)” value [2] was 12% and the “Competition at 1 μM (%)” value [2] was 47%.

With `O=C1c2cn(-c3ccc(N4CC[C@@H](F)C4)nc3)nc2CN1c1ccccn1` [Example 5] the Ki [1] was 26 nM, the “Competition at 100 nM (%)” value [2] was 68% and the “Competition at 1 μM (%)” value [2] was 98%.

In the case of `O=C1c2cn(-c3ccc(N4CCCC4)nc3)nc2CN1c1cccnc1F` [Example 39], the “Competition at 100 nM (%)” value [2] is reported as 43% and the “Competition at 1 μM (%)” value [2] is reported as 66%.

In the case of `N#Cc1ccc(N2Cc3nn(-c4ccc(N5CCCC5)nc4)cc3C2=O)cc1F` [Example 55], the “Competition at 100 nM (%)” value [2] is reported as 11% and the “Competition at 1 μM (%)” value [2] is reported as 38%.

In the case of `N#Cc1cncc(N2Cc3nn(-c4ccc(N5CC[C@@H](F)C5)nc4)cc3C2=O)c1` [Example 109], the “Competition at 100 nM (%)” value [2] is reported as 67%.

`O=C1c2cn(-c3ccc(N4CC[C@H](F)C4)nc3)nc2CN1c1cccc(O)n1` [Example 163] was tested, and the Ki [1] was 67 nM, the “Competition at 100 nM (%)” value [2] was 49% and the “Competition at 1 μM (%)” value [2] was 99%.
